Data from US9873657B2, “Derivatives of benzyl benzoate” (ROBERTET S.A., priority 2014, dated 2018).

Tested on: Corynaebacterium xerosis
Assay: In vitro deodorant activity and durability test (CFU counting in culture vials)
Assay type: cell-based
Conditions: for Number of CFU/ml at t + 24 h / Number of CFU/ml at t + 48 h: 37° C.
Procedure: The test is carried out in vitro.
The compound 1 and the benzyl-4-benzoyloxybenzoate (reference compound described in the international patent application WO 91/07165) are both 10% diluted in benzylbenzoate, and incorporated in a specific culture medium at the moment of distribution in 50 ml vials.
The composition of the vials is characterized as follows: • Vial No. 1 • Brain Heart Infusion (medium)+0.5% Tween 40 • Compound 1 or benzyl-4-benzoyloxybenzoate—0.25% • Enzyme (Lipozyme® CALB, Novozymes)—2% • Bacteria (Corynaebacterium xerosis)—about 10^6 CFU/ml • Vial No. 2 • Brain Heart Infusion (medium)+0.5% Tween 40 • Compound 1 or benzyl-4-benzoyloxybenzoate—0.25% • Bacteria (Corynaebacterium xerosis)—about 10^6 CFU/ml • Vial No. 3 • Brain Heart Infusion (medium)+0.5% Tween 40 • Compound 1 or benzyl-4-benzoyloxybenzoate—0.25% • Enzyme (Lipozyme® CALB, Novozymes)—2%
Afterwards, the vials are incubated under stirring at 37° C. for 48 hours.
After 24 hours, a collection is performed, and 100 μl of a dilution to 1/1000th are spread out on gelose. Counting of the number of CFU (Colony Forming Units) is performed.
It is the comparison of the ratios between the amount of CFU/ml at a time t for the product+enzyme and the product alone which allows assessing the inhibiting activity of the product.

[1] = Vial 1: product 0.25% + enzyme (Lipozyme CALB) 2% + bacteria, Brain Heart Infusion + 0.5% Tween 40
[2] = Vial 2: product 0.25% + bacteria, no enzyme, Brain Heart Infusion + 0.5% Tween 40
[3] = Vial 3: product 0.25% + enzyme 2%, no bacteria added

Compound	Number of CFU/ml at t + 24 h [1]	Number of CFU/ml at t + 48 h [1]	Number of CFU/ml at t + 24 h [2]	Number of CFU/ml at t + 48 h [2]	Number of CFU/ml at t + 24 h [3]	Number of CFU/ml at t + 48 h [3]	deodorant activity compared with benzyl-4-benzoyloxybenzoate (after 24 hours)	deodorant activity relative to the benzyl-4-benzoyloxybenzoate (after 48 hours)
O=C(OCc1ccccc1)c1ccc(OC(=O)c2ccc(Oc3ccccc3)cc2)cc1 [Compound 1, Benzyl[4-(4-Phenoxy)Benzoyloxy]Benzoate]	10^7 CFU/ml	36000 ^ CFU/ml	10^8 CFU/ml	3.2 × 10^6 CFU/ml	0 CFU/ml	0 CFU/ml	comparable	significantly higher
O=C(OCc1ccccc1)c1ccc(OC(=O)c2ccccc2)cc1 [benzyl-4-benzoyloxybenzoate, reference compound]	2.7 × 10^6 CFU/ml	10^8 CFU/ml	10^8 CFU/ml	10^9 CFU/ml	0 CFU/ml	0 CFU/ml	–	–
